Read-outs that look alike come from different tables or passages of the source.

Holding throughout (type): cell-based
The test system of test [1] is Human dermal fibroblasts from Friedreich's Ataxia patients. The experiment in a line: Rescue of BSO-stressed FRDA fibroblasts (Calcein AM viability). The following applies: FRDA fibroblasts GM04078, BSO-stressed, read-out: EC50, protection against Friedreich's ataxia. The procedure: (§1) An initial screen was performed to identify compounds effective for the amelioration of redox disorders. Test samples, 4 reference compounds (Idebenone, decylubiquinone, Trolox and α-tocopherol acetate), and solvent controls were tested for their ability to rescue FRDA fibroblasts stressed by addition of L-buthionine-(S,R)-sulfoximine (BSO), as described in Jauslin et al., Hum. Mol. Genet. 11(24):3055 (2002), Jauslin et al., FASEB J. 17:1972-4 (2003), and International Patent Application WO 2004/003565. […] This specific BSO-mediated cell death can be prevented by administration of antioxidants or molecules involved in the antioxidant pathway, such as α-tocopherol, selenium, or small molecule glutathione peroxidase mimetics. However, antioxidants differ in their potency, i.e. the concentration at which they are able to rescue BSO-stressed FRDA fibroblasts.
MEM (a medium enriched in amino acids and vitamins, catalog no. 1-31F24-I) and Medium 199 (M199, catalog no. 1-21F22-I) with Earle's Balanced Salts, without phenol red, were purchased from Bioconcept. Fetal Calf Serum was obtained from PAA Laboratories. Basic fibroblast growth factor and epidermal growth factor were purchased from PeproTech. Penicillin-streptomycin-glutamine mix, L-buthionine (S,R)-sulfoximine, (+)-α-tocopherol acetate, decylubiquinone, and insulin from bovine pancreas were purchased from Sigma. Trolox (6-hydroxy-2,5,7,8-tetramethylchromane-2-carboxylic acid) was obtained from Fluka. Idebenone was obtained from Chemo Iberica. Calcein AM was purchased from Molecular Probes. Cell culture medium was made by combining 125 ml M199 EBS, 50 ml Fetal Calf Serum, 100 U/ml penicillin, 100 μg/ml streptomycin, 2 mM glutamine, 10 μg/ml insulin, 10 ng/ml EGF, and 10 ng/ml bFGF; MEM EBS was added to make the volume up to 500 ml. A 10 mM BSO solution was prepared by dissolving 444 mg BSO in 200 ml of medium with subsequent filter-sterilization. During the course of the experiments, this solution was stored at +4° C. […]

For test [2], the system named is human dermal fibroblasts from LHON patients. The test can be described thus: Rescue of fibroblasts from LHON patients from oxidative stress (as Example A). The conditions noted are these: Fibroblast, LHON fibroblasts GM03858, BSO-stressed, read-out: EC50, protection against LHON. The procedure:
[Worded in the source for another cell line; this cell line is reported under the same test.] as §1
(§2) Test samples were screened according to the following protocol: • A culture with FRDA fibroblasts was started from a 1 ml vial with approximately 500,000 cells stored in liquid nitrogen. […]
(§3) 100 μl of PBS containing 1.2 μM Calcein AM were then added to each well. […] After that time the PBS was discarded, the plate gently tapped on a paper towel and fluorescence (excitation/emission wavelengths of 485 nm and 525 nm, respectively) was read on a Gemini fluorescence reader. […]

Test [3] relates to human dermal fibroblasts from Parkinson's Disease patients. The experiment in a line: Rescue of fibroblasts from Parkinson's Disease patients from oxidative stress (similar to Example A). The following applies: PD fibroblasts AG20439, BSO-stressed, read-out: EC50, protection against Parkinson's. The procedure: [Worded in the source for another cell line; this cell line is reported under the same test.] as §1, §2, §3

Test [4] deals with human dermal fibroblasts from CoQ10 deficient patients harboring a CoQ2 mutation. The test can be described thus: Rescue of fibroblasts from CoQ10 deficient patients from oxidative stress (similar to Example A). The conditions noted are these: BSO-stressed, read-out: EC50, protection against CoQ10. On the procedure:
[Worded in the source for another cell line; this cell line is reported under the same test.] as §1
Test samples were screened according to the following protocol: • A culture with FRDA fibroblasts was started from a 1 ml vial with approximately 500,000 cells stored in liquid nitrogen. Cells were propagated in 10 cm cell culture dishes by splitting every third day in a ratio of 1:3 until nine plates were available. Once confluent, fibroblasts were harvested. For 54 micro titer plates (96 well-MTP) a total of 14.3 million cells (passage eight) were re-suspended in 480 ml medium, corresponding to 100 μl medium with 3,000 cells/well. The remaining cells were distributed in 10 cm cell culture plates (500,000 cells/plate) for propagation. The plates were incubated overnight at 37° C. in an atmosphere with 95% humidity and 5% CO2 to allow attachment of the cells to the culture plate.
MTP medium (243 μl) was added to a well of the microtiter plate. […]
as §3

Usually EC50 stands for the concentration at which the effect is half-maximal. Regarding `CN1CCc2c(c3ccccc3n2Cc2ccccc2)C1` [5-benzyl-2-methyl-2,3,4,5-tetrahydro-1H-pyrido[4,3-b]indole], the EC50 in test [1] (Homo sapiens) is 4.26 µM; in test [2], 1.2 µM; in test [3] (Homo sapiens, Fibroblast), 0.93 µM; in test [4] (Homo sapiens, Fibroblast), 3.35 µM.
With `Cc1ccc2c(c1)C1CNCCC1N2` (stereo not drawn) [8-methyl-1,3,4,4a,5,9b-tetrahydro-1H-pyrido[4,3-b]indole], the EC50 is 4.1 µM in test [1], 3.68 µM in test [3] and 7 µM in test [4].
On to `Cc1ccc2c(c1)c1c(n2CCc2ccc(C)nc2)CCN(C)C1` [dimebolin, 2,8-dimethyl-5-(2-(6-methylpyridin-3-yl)ethyl)-2,3,4,5-tetrahydro-1H-pyrido[4,3-b]indole], for which the EC50 was 1.9 µM in test [1] (Homo sapiens) and 0.23 µM in test [4] (Homo sapiens, Fibroblast).

Source of the values: US20100029706A1, “HYDROGENATED PYRIDO[4,3-b]INDOLES FOR THE TREATMENT OF OXIDATIVE STRESS” (Edison Parmaceuticals, Inc. a Delaware Corporation, priority 2008, published 2010).
